Reference: BindingDB's records for doi:10.7270/Q2959G0B (Nmmlsc, 2009)

molecular target: Ras-related C3 botulinum toxin substrate 1 (Mus musculus, UniProt P63001); assay: blockers of fluorescent GTP loading onto wildtype Rac1 – biochemical, pyrazoline analogs, multiplex, flow cytometry, Ki, SAR follow-up (AID 2055); settings: not given

O=S(=O)(O)c1ccc(N2N=C(c3ccccc3)CC2c2ccccc2)cc1 (stereo unspecified) [UNM-0000305834] was tested, and the EC50 was 30 µM.

same assay, conditions: inactive by the depositor's call

Point of comparison: COc1ccc(C2CC(c3ccccc3F)=NN2c2ccc(S(N)(=O)=O)cc2)cc1 (stereo unspecified) [UNM-0000306110], EC50 30 µM. Against it:
- O=S(=O)(c1ccc(N2N=C(c3ccc(Br)cc3)CC2c2ccccc2)cc1)C(F)F (stereo unspecified) [5-(4-bromophenyl)-2-[4-(difluoromethylsulfonyl)phenyl]-3-phenyl-3,4-dihydropyrazole] — the same, 30 µM
- FC(F)(F)c1ccccc1C1CC(c2ccc(Br)cc2)=NN1c1ccccc1 (stereo unspecified) [5-(4-bromophenyl)-2-phenyl-3-[2-(trifluoromethyl)phenyl]-3,4-dihydropyrazole] — the same, 30 µM
- O=[N+]([O-])c1cccc(C2C[C-](c3ccc(F)cc3)N=[N+]2c2ccccc2)c1 (stereo unspecified) [5-(4-fluorophenyl)-3-(3-nitrophenyl)-2-phenyl-3,4-dihydropyrazole] — the same, 30 µM
- Cc1ccc(-c2cc(C(F)(F)F)nn2-c2ccc(S(N)(=O)=O)cc2)cc1 [Celecoxib] — the same, 30 µM
- COc1ccc(C2CC(c3ccc(N(C)C)cc3)=NN2c2ccc(S(N)(=O)=O)cc2)cc1 (stereo unspecified) [KUC103422N] — the same, 30 µM
- COc1ccc(C2CC(c3cccs3)=NN2c2ccc(S(N)(=O)=O)cc2)cc1 (stereo unspecified) [KUC103438N] — the same, 30 µM
- NS(=O)(=O)c1ccc(N2N=C(c3ccccc3)CC2c2ccccc2Cl)cc1 (stereo unspecified) [KUC103446N] — the same, 30 µM
- COc1ccc(C2CC(C(C)(C)C)=NN2c2ccc(S(N)(=O)=O)cc2)cc1 (stereo unspecified) [KUC103450N] — the same, 30 µM
- COc1ccc(C2CC(c3ccccc3C(F)(F)F)=NN2c2ccc(S(N)(=O)=O)cc2)cc1 (stereo unspecified) [KUC103474N] — the same, 30 µM
- Cc1ccccc1N1N=C(c2ccccc2)CC1c1ccc(N(C)C)cc1 (stereo unspecified) [N,N-dimethyl-4-[2-(2-methylphenyl)-5-phenyl-3,4-dihydropyrazol-3-yl]aniline] — the same, 30 µM
- COc1ccc(C2CC(c3ccccc3)=NN2c2ccc(S(N)(=O)=O)cc2)cc1OC (stereo unspecified) [UNM-0000305823] — 2.3-fold lower, 13.2 µM
- COc1ccc(C2CC(c3ccc(Br)cc3)=NN2c2ccccc2Cl)cc1 (stereo unspecified) [UNM-0000305832] — the same, 30 µM
- COc1ccc(C2=NN(c3ccccc3)C(c3ccc(Cl)cc3)C2)cc1 (stereo unspecified) [UNM-0000305833] — the same, 30 µM
- Cc1cccc(N2N=C(c3ccccc3)CC2c2ccccc2)c1 (stereo unspecified) [UNM-0000305835] — the same, 30 µM
- O=[N+]([O-])c1ccc([N+]2=N[C-](c3ccccc3)CC2c2ccc(O)cc2)cc1 (stereo unspecified) [UNM-0000305838] — the same, 30 µM
- CN(C)c1ccc(C2CC(c3ccc(Br)cc3)=NN2c2ccccc2)cc1 (stereo unspecified) [UNM-0000305846] — the same, 30 µM
- CN(C)c1ccc(C2CC(c3ccc(Cl)cc3)=NN2c2ccccc2)cc1 (stereo unspecified) [UNM-0000305847] — the same, 30 µM
- COc1ccc(C2=NN(c3ccccc3)C(c3ccc(OC)c(OC)c3C(=O)O)C2)cc1 (stereo unspecified) [UNM-0000305848] — the same, 30 µM
- Cc1ccccc1[N+]1=N[C-](c2ccccc2)CC1c1cccc([N+](=O)[O-])c1 (stereo unspecified) [UNM-0000305854] — the same, 30 µM
- COc1ccccc1N1N=C(c2ccccc2)CC1c1ccccc1 (stereo unspecified) [UNM-0000305855] — the same, 30 µM
- O=[N+]([O-])c1cccc(C2C[C-](c3ccccc3)N=[N+]2c2ccccc2)c1 (stereo unspecified) [UNM-0000305857] — the same, 30 µM
- COc1ccc(C2CC(c3ccc(Cl)cc3)=NN2c2ccccc2)cc1OC (stereo unspecified) [UNM-0000305858] — the same, 30 µM
- FC(F)(F)c1cccc(N2N=C(c3ccc(Cl)cc3)CC2c2ccccc2Cl)c1 (stereo unspecified) [UNM-0000305859] — the same, 30 µM
- COc1ccc(C2=NN(c3ccccc3F)C(c3ccc(F)cc3)C2)cc1 (stereo unspecified) [UNM-0000305860] — the same, 30 µM
- COc1ccc(C2=NN(c3ccc(Cl)cc3)C(c3ccccc3F)C2)cc1 (stereo unspecified) [UNM-0000305863] — the same, 30 µM
- COc1ccc(C2CC(c3ccc(F)cc3)=NN2c2ccccc2)cc1OC (stereo unspecified) [UNM-0000305864] — the same, 30 µM
- CN(C)c1ccc(C2CC(c3ccc(F)cc3)=NN2c2ccccc2)cc1 (stereo unspecified) [UNM-0000305866] — the same, 30 µM
- COc1ccc(C2CC(c3ccccc3)=NN2c2ccc(C(N)=O)cc2)cc1 (stereo unspecified) [UNM-0000305870] — the same, 30 µM
- COc1ccc(C2CC(c3ccccc3)=NN2c2ccc(C(=O)O)cc2)cc1 (stereo unspecified) [UNM-0000306085] — the same, 30 µM
- COc1ccc(C2CC(c3ccccc3Br)=NN2c2ccc(S(N)(=O)=O)cc2)cc1 (stereo unspecified) [UNM-0000306112] — the same, 30 µM
- COc1ccc(C2CC(c3cccc(Br)c3)=NN2c2ccc(S(N)(=O)=O)cc2)cc1 (stereo unspecified) [UNM-0000306113] — the same, 30 µM
- COc1ccc(C2CC(c3cccc(Cl)c3)=NN2c2ccc(S(N)(=O)=O)cc2)cc1 (stereo unspecified) [UNM-0000306134] — the same, 30 µM
- COc1ccc(C2CC(c3ccc(Br)cc3)=NN2c2ccc(S(N)(=O)=O)cc2)cc1 (stereo unspecified) [UNM-0000306138] — the same, 30 µM
- NS(=O)(=O)c1ccc(N2N=C(c3ccccc3)CC2c2cccc(Br)c2)cc1 (stereo unspecified) [UNM-0000306147] — the same, 30 µM
- Cc1ccccc1C1CC(c2ccccc2)=NN1c1ccc(S(N)(=O)=O)cc1 (stereo unspecified) [UNM-0000306148] — the same, 30 µM
- COc1ccc(C2CC(c3ccccc3C)=NN2c2ccc(S(N)(=O)=O)cc2)cc1 (stereo unspecified) [UNM-0000306152] — the same, 30 µM
- COc1ccc(C2CC(c3cccc(C)c3)=NN2c2ccc(S(N)(=O)=O)cc2)cc1 (stereo unspecified) [UNM-0000306153] — the same, 30 µM
- NS(=O)(=O)c1ccc(N2N=C(c3ccccc3)CC2c2ccc(Br)cc2)cc1 (stereo unspecified) [UNM-0000306160] — the same, 30 µM
- NS(=O)(=O)c1ccc(N2N=C(c3ccccc3)CC2c2cccc(Cl)c2)cc1 (stereo unspecified) [UNM-0000306161] — the same, 30 µM
